Experimental data: US20070099822A1, “Regulation of tissue mineralization and phosphate metabolism by asarm peptides” (priority 2003, published 2007)
Entries after “also recorded” stand apart in the source; their conditions may differ. Like-named read-outs stand apart in the source and are kept apart here. Square brackets hold non-standard residues; d marks the D form. Peptide text beside a SMILES is read from it. pS = N[C@@H](COP(=O)(O)O)C(=O)O

Columns and labels:
male ICR Swiss mice = test: Example VI: subcutaneous PO4-ASARM-peptide or etidronate, calcein fluorescence and Sanderson osteoid staining; assay type: in vivo; conditions: PO4-ASARM-peptide 2 mg/kg/day
Experimental: Subcutaneous administration of PO4-ASARM-peptide, etidronate (EHDP), and calcein. Three separate groups of male ICR Swiss mice (4-5 weeks) were subcutaneously injected once a day (9:00AM), for 12 days except for days 6 and 7 with 50 μL solutions of either (1) Eitidronate (EHDP) (10 mg/kg/day); (2) PO4-ASARM-peptide (2 mg/kg/day); or (3) vehicle consisting of 5 mM HEPES pH 7.4/150 mM NaCL/0.1% BSA. The synthetic PO4-ASARM-peptide was dissolved in vehicle (1.0 mg/mL). Etidronate was first dissolved in 150 mM NaCl and then buffered to pH 7.5 with 1M NaOH to give a 5 mg/mL solution. The 10 mg/kg/day doses of etidronate have previously been reported to inhibit mineralization in rats and were used as positive controls (Trechsel, et al., Am J Physiol 232(3):E298-305, 1977; Bonjour, et al., Am J Physiol 229(2):402-8, 1975). All three groups were subcutaneously injected with calcein (20 mg/kg/day) on days 3, 5, […]. The degree of calcein fluorescence and/or fluorescence-quenching is an indicator of mineralization status (see next section). The calcein injections when given were administered 1 h after the daily injections of PO4-ASARM-peptide, EHDP or vehicle. Animals were then terminated humanely and calvariae plus femurs/tibia were fixed in 70% ethanol (non-decalcified). After fluorescence imaging (see FIG. 35) calvariae were processed in plastic and stained with Sanderson's stain (see below). Five animals per group were used for statistical analysis of fluorescence quenching and histological Sanderson staining.
Calcein fluorescence in mice calvariae, hind-limbs & fluor-imager analysis of mineralization. A Bio-Rad (Hercules, Calif.) FluorImager^max fluorescent imager was used to simultaneously image all the samples from each of the 3 groups (15 animals; five animals per group). This consisted of 10 tibia/femurs and 5 calvariae per group. Samples were placed on top of the FluorImager plate contained within a light-tight box. Ultra-violet light was used to generate calcein-mediated epi-fluorescence and the fluorescent-image was captured on a −40° C., peltier-cooled, 1,340×1040 pixel CCD resolution, CCD digital-camera. Quantitation of fluorescence was carried out using Quantity-1 (Bio-Rad, Hercules, Calif.) fluorescence-software. Pixel saturation was prevented by internal software calibration and exposure adjustment. All fluorescence readings were thus accurately quantitative and non-saturating. Photo-micrographic UV fluorescent analysis of calvarial cross sections embedded in plastic and mounted as slides (<100 micrometer sections) was also undertaken and a description of the fixation and processing is given in the next section.
Sanderson-staining and fluorescence detection of calvarial osteoid & mineralized bone. Staining of non-decalcified calvarial sections was performed using the method described by Sanderson and Bachus (Staining technique to differentiate mineralized and demineralized bone in ground sections, J Histotechnol 20(2): 119-122, 1997). This technique provides differential staining between unmineralized osteoid and mineralized bone. Prior to staining, calvariae were dissected and attached tissue removed. Calvariae were then placed in 70% ethanol for further fixation as described by Sanderson and Bachus (supra). After fixing and processing undecalcified calvariae were embedded in plastic (LR-white acrylic resin (London Resin Co., Reading, England)) as previously described (Garrett, et al., Selective inhibitors of the osteoblast proteasome stimulate bone formation in vivo and in vitro, J Clin Invest 111(11):1771-1782, 2003). Plastic embedded sections were ground to <100 micrometers using a specialized grinding-pestle as described by Donath and Breuner (A method for the study of undecalcified bones and teeth with attached soft tissues. The Sage-Schliff (sawing and grinding) technique, J Oral Pathol 11(4):318-26, 1982). […]

MEPE-PHEX interaction = molecular target: T1, MEPE-PHEX interaction (Homo sapiens, UniProt P78562); test: Surface plasmon resonance, peptide solution competition of secPHEX-MEPE binding; conditions: for inhibition of MEPE-PHEX interaction: peptide pre-mixed with secPHEX, MEPE-RGD up to 85 μM
T1 construct: to generate a soluble, secreted form of PHEX; made in house; host or cells: secPHEX: mammalian cells (gift, University of Montreal); MEPE: S. frugiperda insect cells
T1 sequence (P78562 46-749 limits assumed): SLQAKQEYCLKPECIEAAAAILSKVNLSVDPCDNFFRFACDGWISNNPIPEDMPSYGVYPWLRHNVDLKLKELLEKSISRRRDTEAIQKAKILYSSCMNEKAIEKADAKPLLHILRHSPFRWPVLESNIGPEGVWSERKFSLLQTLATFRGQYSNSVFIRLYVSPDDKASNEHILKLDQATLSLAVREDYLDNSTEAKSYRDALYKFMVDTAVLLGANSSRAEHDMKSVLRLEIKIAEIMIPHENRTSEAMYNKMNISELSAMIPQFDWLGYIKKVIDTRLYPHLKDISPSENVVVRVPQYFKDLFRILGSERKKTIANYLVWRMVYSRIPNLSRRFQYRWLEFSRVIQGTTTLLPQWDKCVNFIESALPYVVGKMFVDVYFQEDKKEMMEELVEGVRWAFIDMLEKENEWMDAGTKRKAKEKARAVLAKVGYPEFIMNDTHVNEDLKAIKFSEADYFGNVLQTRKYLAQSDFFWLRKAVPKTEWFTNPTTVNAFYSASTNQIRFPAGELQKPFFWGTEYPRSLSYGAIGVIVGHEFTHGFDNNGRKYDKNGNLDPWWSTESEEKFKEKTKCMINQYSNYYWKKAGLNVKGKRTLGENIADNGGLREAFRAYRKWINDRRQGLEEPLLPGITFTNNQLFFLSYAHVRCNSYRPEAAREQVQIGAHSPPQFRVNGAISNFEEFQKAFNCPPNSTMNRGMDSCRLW
Excerpt: Surface Plasmon Resonance: Synthetic peptides & competitive PHEX-MEPE binding studies. For these experiments CM-5 chips containing flow-cells immobilized with MEPE, PHEX and IgG ligands at 6000 RU were used. Just prior to SPR injection, stock solution of specific-peptide (as defined for each experiment; see Table 1), and dissolved in analyte buffer (HBS-P—Zn) […] The following equation was used to compute KDapp values: RU=Bmax/inhib×(peptide(μM))/KDapp+(peptide(μM)). The Bmax/inh value represents the maximal percentage inhibition change in RU (i.e., PHEX-MEPE binding) relative to the “non-peptide” control (0% inhibition of binding), using a constant analyte flow-solution of secPHEX of 250 nM against immobilized MEPE ligand at 6000 RU. […] The control MEPE-RGD peptide had no effect on MEPE-PHEX interactions.

[1] = system: mouse osteoblast cell-line 2T3; test: Mineralized bone matrix formation assay (von Kossa), BMP2-induced; assay type: cell-based; conditions: 2T3 cells, BMP2 100 ng/mL; Hu-MEPE 10-800 ng/mL, ASARM-peptide 60 and 300 ng/mL, control peptide 300 ng/mL
Excerpt: Mineralized bone matrix formation assay. A mouse osteoblast cell-line (2T3-cells) were monitored using a mineralized matrix formation assay as described by Bhargava et al. (Ultrastructural analysis of bone nodules formed in vitro by isolated fetal rat calvaria cells. Bone 9:155-63, 1988) and cultured as described previously (Bhargava et al., supra; Chen et al. Differential roles for bone morphogenetic protein (BMP) receptor type IB and IA in differentiation and specification of mesenchymal precursor cells to osteoblast and adipocyte lineages. J Cell Biol 142:295-305, 1998; and Zhao, et al. Bone morphogenetic protein receptor signaling is necessary for normal murine postnatal bone formation. J Cell Biol 157:1049-60, 2002). Mineralization of the murine osteoblastic 2T3 cell-line has been extensively studied using physical techniques, electron microscopy and histological techniques. This cell line (2T3) undergoes exogenous BMP2-induced mineralized-matrix indistinguishable from normal bone-mineral hydroxyapatite in-vitro (Bhargava et al., supra; Chen et al., supra; and Zhao et al., supra). The cells were plated in 24-well culture plates at density of 2×10^4 cells/well and cultured with minimal essential medium (MEM) supplemented with 10% FCS. When the cells reached confluency (day 0), the medium was changed to MEM containing 5% FCS, 100 μg/mL ascorbic acid and 5 mM β-glycerol phosphate with or without 100 ng/mL of BMP-2. The effects of Hu-MEPE, MEPE ASARM-peptide and control peptide at different doses (see results section) in the absence and presence of BMP2 were measured using the von Kossa stain for mineralization. The medium was changed every other day and fresh reagents were added. Von Kossa stain of mineralized bone matrix was performed as follows. The cell cultures were washed with PBS twice, fixed in phosphate buffered formalin for 10 min, and then washed with water, and serially dehydrated in 70%, 95%, and 100% ethanol, twice each and air dried. The plates were rehydrated from 100% to 95% to 80% ethanol to water before staining. The water was removed, a 2% silver nitrate solution was added, and the plates were exposed to sunlight for 20 min, after which the plates were rinsed with water. 5% sodium thiosulfate was added for 3 min and the plates were then rinsed with water. The modified van Gieson stain was then used as a counterstain after the von Kossa stain. The unmineralized collagen matrix can be recognized by the yellow/red van Gieson stain. The acid fuchsin solution (5 part of 1% acid fuchsin, 95 part of picric acid, and 0.25 part of 12 M HCl) was added for 5 min. The plates were washed with water, and then 2×95% ethanol and 2×100% ethanol, and dried for image analysis. The area of von Kossa stained matrix was quantitated as previously described (Chen et al., supra). Briefly matrix was quantified by automated image analysis using a video analysis program (Jandel Scientific, San Rafael Calif.) and also a Bio-Rad (Hercules, Calif.) Quantity-1 image analysis capture program. A video screen camera (CCD/RGB; Sony Corp., Park Ridge, N.J.) linked to a microscope (model BH2; Olympus Corp., Precision Instruments Division, Lake Success, N.Y.) equipped with metallurgical lens was used to image plates.

| Molecule | tibiae-femurs fluorescence-signal reduction relative to vehicle (male ICR Swiss mice) [%] | increase of osteoid layer thickness relative to vehicle (male ICR Swiss mice; etidronate 10 mg/kg/day) [fold] | percentage quenching of calvarial calcein fluorescence relative to vehicle (male ICR Swiss mice; etidronate 10 mg/kg/day) [%] | calvariae calcein fluorescence (male ICR Swiss mice; etidronate 10 mg/kg/day, s.c. 12 days, vehicle 1100.5) | calvarial osteoid relative thickness (Sanderson staining) (male ICR Swiss mice; etidronate 10 mg/kg/day, vehicle 2.3) | tibiae-femurs calcein fluorescent intensity (male ICR Swiss mice; vehicle 268.52) | Bmax/inh, maximal percentage-inhibition of MEPE-PHEX binding (MEPE-PHEX interaction; 250 nM secPHEX, MEPE 6000 RU) [%] | Kd (MEPE-PHEX interaction; 250 nM secPHEX, MEPE 6000 RU, read-out: apparent KDapp, solution competition of MEPE-PHEX binding) [µM] | Kd (MEPE-PHEX interaction; apparent KDapp, solution competition of secPHEX-MEPE binding, 250 nM secPHEX, MEPE 6000 RU (FIG. 34 legend), heading: apparent KDapp, solution competition of secPHEX-MEPE binding) [µM] | inhibition of MEPE-PHEX interaction (MEPE-PHEX interaction) | effect on BMP2-mediated mineralization (von Kossa staining) [1] | inhibition of MEPE-PHEX interaction (MEPE-PHEX interaction; listed as MEPE-RGD-peptide) |
| --- | --- | --- | --- | --- | --- | --- | --- | --- | --- | --- | --- | --- |
| N=C(N)NCCC[C@H](N)C(=O)N[C@@H](CC(=O)O)C(=O)N[C@@H](CC(=O)O)C(=O)N[C@@H](CO)C(=O)N[C@@H](CO)C(=O)N[C@@H](CCC(=O)O)C(=O)N[C@@H](CO)C(=O)N[C@@H](CO)C(=O)N[C@@H](CC(=O)O)C(=O)N[C@@H](CO)C(=O)NCC(=O)N[C@@H](COP(=O)(O)O)C(=O)N[C@@H](CO)C(=O)N[C@@H](COP(=O)(O)O)C(=O)N[C@@H](CCC(=O)O)C(=O)N[C@@H](COP(=O)(O)O)C(=O)N[C@@H](CC(=O)O)C(=O)NCC(=O)N[C@@H](CC(=O)O)C(=O)O [PO4-ASARM-peptide, RDDSSESSDSG(Sp)S(Sp)E(Sp)DGD] (H-RDDSSESSDSG[pS]S[pS]E[pS]DGD-OH) | 44.5 | 3.5 | 62 | 568.7 fluorescent intensity units | 8.0 | 148.9 | 68 | 15 | 15 | able to inhibit; also recorded: dramatic dose-dependent inhibition | – | – |
| CGSGYTDLQERGDNDISPFSGDGQPF (Homo sapien) [control peptide, reference compound] | – | – | – | – | – | – | – | – | – | – | failed to elicit any changes in mineralization | – |
| GSGYTDLQERGDNDISPFSGDGQPF (Homo sapien) [MEPE-RGD, 15, negative control, reference compound] | – | – | – | – | – | – | – | – | – | did not competitively inhibit; also recorded: no effect | – | no inhibition |
